{"source": "patent US20230321045A1", "about": "(priority 2022, published 2023)", "key": {"vaccinia virus [1]": {"tested_on": "vaccinia virus", "assay_type": "cell-based"}, "vaccinia virus [2]": {"tested_on": "vaccinia virus", "assay_type": "cell-based", "remark": "listed apart in the source"}, "H1N1 (PR8) [3]": {"tested_on": "H1N1 (PR8)", "set-up": "species or system female Balb/c mice", "details": "mouse, in vivo"}, "H1N1 (PR8) [4]": {"tested_on": "H1N1 (PR8)", "set-up": "species or system female Balb/c mice", "details": "mouse, in vivo", "remark": "listed apart in the source"}, "H1N1 (PR8) [5]": {"tested_on": "H1N1 (PR8)", "set-up": "species or system female Balb/c mice", "details": "mouse, in vivo", "remark": "listed apart in the source"}, "H1N1 (PR8) [6]": {"tested_on": "H1N1 (PR8)", "set-up": "species or system female Balb/c mice", "details": "mouse, in vivo", "remark": "listed apart in the source"}}, "note": "“Also recorded” adds a separate entry of the source. Read-outs that look alike come from different tables or passages of the source."}
{"smiles": "COc1cc(C(=O)c2cnc(-c3c[nH]c4ccccc34)[nH]2)cc(OC)c1OC.Cl", "note": "[17ya hydrochloride salt]", "values": [{"measurement": "release of extracellular enveloped virus (EEV) from infected cells", "setting": "vaccinia virus [1]", "result": "dose dependent inhibition of virus released"}, {"measurement": "virus associated with the infected cells (IMV)", "setting": "vaccinia virus [1]", "result": "not a good correlation between the amount of drug and the amount of virus produced"}, {"measurement": "IC50", "setting": "vaccinia virus [1]; read-out: IC50, virus released into the media (EEV)", "result": 24.3, "unit": "nM"}, {"measurement": "IC90", "setting": "vaccinia virus [1]; read-out: IC90, virus released into the media (EEV)", "result": 37.8, "unit": "nM"}, {"measurement": "vaccinia virus cell-to-cell spread", "setting": "vaccinia virus [2]", "result": "clear dose-dependent response"}, {"measurement": "IC50", "setting": "vaccinia virus [2]; read-out: IC50, vaccinia virus cell-to-cell spread", "result": 15.7, "unit": "nM"}, {"measurement": "IC90", "setting": "vaccinia virus [2]; read-out: IC90, vaccinia virus cell-to-cell spread", "result": 27, "unit": "nM"}, {"measurement": "toxicity to BSC40 cells", "setting": "BSC40 cells", "result": "showed a dose response for toxicity"}]}
{"smiles": "CCOC(=O)C1=C[C@@H](OC(CC)CC)[C@H](NC(C)=O)[C@@H](N)C1", "note": "[Oseltamivir]", "values": [{"measurement": "body weight gain / body weight loss vs H1N1 vehicle control group", "setting": "H1N1 (PR8) [3]", "result": "statistically significantly higher (p<0.01) body weight gain from Day 6 to Day 11; also recorded: attenuated the clinical signs and bodyweight loss"}, {"measurement": "clinical signs associated with H1N1 infection", "setting": "H1N1 (PR8) [3]", "result": "attenuation of the clinical signs; also recorded: attenuated the clinical signs"}, {"measurement": "BAL cell counts: Eosinophils", "setting": "H1N1 (PR8) [4]", "result": "0.01 ± million/animal"}, {"measurement": "BAL cell counts: Lymphocytes", "setting": "H1N1 (PR8) [4]", "result": "0.09 ± million/animal"}, {"measurement": "BAL cell counts: Mononuclear cells", "setting": "H1N1 (PR8) [4]", "result": "0.01 ± million/animal"}, {"measurement": "BAL cell counts: Neutrophils", "setting": "H1N1 (PR8) [4]", "result": "0.15 ± million/animal"}, {"measurement": "BAL cell counts: Totals", "setting": "H1N1 (PR8) [4]", "result": "0.27 ± million/animal"}, {"measurement": "BAL total and differential cells compared to the H1N1 control group", "setting": "H1N1 (PR8) [4]", "result": "statistically significantly (p<0.01) lower BAL total cells, neutrophils, eosinophils, lymphocytes, and mononuclear cells"}, {"measurement": "BAL Cytokine level: IFN-γ", "setting": "H1N1 (PR8) [5]", "result": "2.78 ± pg/ml"}, {"measurement": "BAL Cytokine level: IL-6", "setting": "H1N1 (PR8) [5]", "result": "31.01 ± pg/ml"}, {"measurement": "BAL Cytokine level: IP-10", "setting": "H1N1 (PR8) [5]", "result": "147.64 ± pg/ml"}, {"measurement": "BAL Cytokine level: KC", "setting": "H1N1 (PR8) [5]", "result": "88.29 ± pg/ml"}, {"measurement": "BAL cytokine levels compared to the H1N1 control group", "setting": "H1N1 (PR8) [5]", "result": "statistically significantly (p<0.01) lower TNFα, IFNγ, IL-6, KC, and IP-10; also recorded: statistically significantly lower BAL total cells, neutrophils, eosinophils, lymphocytes, mononuclear cells BAL IFNγ, IL-6, IP-10, KC and TNFα"}, {"measurement": "H1N1 induced higher PenH", "setting": "H1N1 (PR8) [6]", "result": "completely attenuated H1N1 induced higher PenH"}]}
{"smiles": "C[C@@H]1C[C@H]2[C@@H]3CCC4=CC(=O)C=C[C@]4(C)[C@@]3(F)[C@@H](O)C[C@]2(C)[C@@]1(O)C(=O)CO", "note": "[Dexamethasone]", "values": [{"measurement": "BAL cell counts: Eosinophils", "setting": "H1N1 (PR8) [4]", "result": 0.03, "unit": "million/animal"}, {"measurement": "BAL cell counts: Lymphocytes", "setting": "H1N1 (PR8) [4]", "result": 0.15, "unit": "million/animal"}, {"measurement": "BAL cell counts: Mononuclear cells", "setting": "H1N1 (PR8) [4]", "result": 0.02, "unit": "million/animal"}, {"measurement": "BAL cell counts: Neutrophils", "setting": "H1N1 (PR8) [4]", "result": 0.34, "unit": "million/animal"}, {"measurement": "BAL cell counts: Totals", "setting": "H1N1 (PR8) [4]", "result": 0.54, "unit": "million/animal"}, {"measurement": "BAL Cytokine level: IFN-γ", "setting": "H1N1 (PR8) [5]", "result": "4.80 ± pg/ml"}, {"measurement": "BAL Cytokine level: IL-6", "setting": "H1N1 (PR8) [5]", "result": "351.37 ± pg/ml"}, {"measurement": "BAL Cytokine level: IP-10", "setting": "H1N1 (PR8) [5]", "result": 1102.42, "unit": "pg/mL"}, {"measurement": "BAL Cytokine level: KC", "setting": "H1N1 (PR8) [5]", "result": 854.41, "unit": "pg/mL"}, {"measurement": "BAL Cytokine level: TNF-α", "setting": "H1N1 (PR8) [5]", "result": 24.08, "unit": "pg/mL"}, {"measurement": "change in CXCL-10 in BAL fluid", "setting": "H1N1 (PR8) [5]", "result": "−8", "unit": "%"}, {"measurement": "change in Interferon-γ (INF-γ) in BAL fluid", "setting": "H1N1 (PR8) [5]", "result": "−81", "unit": "%"}, {"measurement": "change in Interleukin-6 (IL-6) in BAL fluid", "setting": "H1N1 (PR8) [5]", "result": "−52", "unit": "%"}, {"measurement": "change in Keratinocyte-derived chemokine (KC) in BAL fluid", "setting": "H1N1 (PR8) [5]", "result": "+20%"}, {"measurement": "change in TNF-α in BAL fluid", "setting": "H1N1 (PR8) [5]", "result": "−13", "unit": "%"}]}
